Article PMC7351850 (European Journal of Clinical Pharmacology, 2020)

Assays:
clinical = settings: male, human, plasma, po, 750 mg, metformin 750 mg single dose alone, fed, n=24; for AUC(0-inf): Plasma AUCinf of metformin; for Cmax: Plasma Cmax of metformin
Procedure: (§5) Subjects were admitted to hospital on Day 1 and were discharged on Day 12. […] On Day 3 and Days 5–11, subjects received peficitinib 150 mg (150 mg × 1 tablet), once daily. Subjects returned for an end-of-study examination on Day 15 ± 2.
(§6) The planned sample size was 24 subjects, based on the precedent set by other PK studies of a similar nature [21, 22]. The safety analysis set (SAF) consisted of all subjects who received at least one dose of study drug. The PK analysis set (PKAS) consisted of subjects who received the study drug and provided at least one estimable PK parameter. Plasma PK parameters were calculated by non-compartmental analysis using Phoenix(R) WinNonlin(R) software, version 6.2 (Certara USA, Inc., Princeton, NJ, USA). Baseline demographic and other characteristics, vital signs, clinical laboratory findings, 12-lead ECG results and TEAEs were summarised for the SAF using descriptive statistics.
(§7) Statistical analyses were performed using SAS(R) software, version 9.4 (SAS Institute Inc., Cary, NC, USA). […] The least-square (LS) geometric mean ratio (GMR) and its 90% confidence interval (CI) were calculated using the exponential-transformed LS geometric mean difference and CI. Missing data were not imputed or used for analyses.

[1] = metformin 750 mg single dose alone, fed, n=24
Procedure: as §5, §6, §7

MATE1 = target: T1, MATE1 (Homo sapiens, UniProt Q96FL8); test: Inhibition of [14C]metformin uptake into MATE1-expressing HEK293 cells; type: cell-based
T1 construct: containing full-length human transporter cDNA; host or cells: HEK293
T1 sequence (Q96FL8 1-570): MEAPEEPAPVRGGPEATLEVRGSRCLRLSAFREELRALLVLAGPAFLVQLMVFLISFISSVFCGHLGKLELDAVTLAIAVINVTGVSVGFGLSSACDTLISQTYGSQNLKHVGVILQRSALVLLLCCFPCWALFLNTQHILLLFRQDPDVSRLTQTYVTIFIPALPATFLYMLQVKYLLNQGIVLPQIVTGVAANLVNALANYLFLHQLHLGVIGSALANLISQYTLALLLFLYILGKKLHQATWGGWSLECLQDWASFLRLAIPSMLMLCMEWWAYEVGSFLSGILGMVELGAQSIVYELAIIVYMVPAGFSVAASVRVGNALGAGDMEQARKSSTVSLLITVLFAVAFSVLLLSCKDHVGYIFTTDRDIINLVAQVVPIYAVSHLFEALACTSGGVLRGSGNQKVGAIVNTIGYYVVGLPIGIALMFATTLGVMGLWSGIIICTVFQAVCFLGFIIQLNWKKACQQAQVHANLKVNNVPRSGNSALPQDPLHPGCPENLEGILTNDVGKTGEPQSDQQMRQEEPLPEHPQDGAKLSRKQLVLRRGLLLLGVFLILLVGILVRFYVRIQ
Excerpt: (§1) Human embryonic kidney (HEK293) cells expressing OCT1, OCT2, MATE1 and MATE2-K were established at the ADME & Tox. Research Institute (Sekisui Medical Co., Ltd, Ibaraki, Japan) by transfection of a pcDNA vector (Invitrogen, Carlsbad, CA, USA) containing full-length human transporter cDNA. Control HEK293 cells were established by transfection of the empty vector. The expression level of transporter mRNA in transfected cells was verified periodically by real-time polymerase chain reaction. […] The cells were maintained at 37 °C with 5% CO2 in DMEM containing 10% FBS with antibiotic-antimycotics and L-glutamine.
(§2) Assays were performed in triplicate. […]
(§3) After incubation, the test solution was removed, and the cells were washed once with ice-cold 0.2% bovine serum albumin in phosphate-buffered saline (PBS) and twice with 1 mL of ice-cold PBS. […] After the cell lysate was mixed by pipetting, 0.3 mL (OCT1, OCT2, and MATE1) or 0.5 mL (MATE2-K) of the lysate was collected into a glass vial and mixed with 10 mL of the scintillator Hionic-fluor (PerkinElmer, Inc., Waltham, MA, USA) to measure the radioactivity using a liquid scintillation counter (2500TR [PerkinElmer, Inc.]).
(§4) Protein content was measured using the BCA Protein Assay Kit (Thermo Fisher Scientific, Inc., Waltham, MA, USA, or Pierce, Rockford, IL, USA) in accordance with the manufacture’s recommendations. […]

OCT2 = target: T2, OCT2 (Homo sapiens, UniProt O15244); test: Inhibition of [14C]metformin uptake into OCT2-expressing HEK293 cells; type: cell-based
T2 construct: containing full-length human transporter cDNA; host or cells: HEK293
T2 sequence (O15244 1-555): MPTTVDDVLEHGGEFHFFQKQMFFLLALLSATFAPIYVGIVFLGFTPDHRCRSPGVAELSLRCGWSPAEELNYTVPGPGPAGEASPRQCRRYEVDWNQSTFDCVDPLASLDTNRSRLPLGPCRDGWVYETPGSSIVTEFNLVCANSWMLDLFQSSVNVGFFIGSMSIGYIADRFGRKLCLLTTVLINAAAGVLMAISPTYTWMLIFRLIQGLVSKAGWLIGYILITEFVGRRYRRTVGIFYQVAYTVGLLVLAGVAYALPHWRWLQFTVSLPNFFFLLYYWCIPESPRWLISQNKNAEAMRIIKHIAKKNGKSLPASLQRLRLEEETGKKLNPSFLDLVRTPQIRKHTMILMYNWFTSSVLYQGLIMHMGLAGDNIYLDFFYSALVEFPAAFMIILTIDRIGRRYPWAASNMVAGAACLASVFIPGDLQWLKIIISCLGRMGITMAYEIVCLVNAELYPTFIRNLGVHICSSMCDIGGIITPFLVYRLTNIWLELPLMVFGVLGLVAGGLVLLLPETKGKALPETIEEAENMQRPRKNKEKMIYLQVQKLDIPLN
Excerpt: as §1, §2, §3, §4

[2] = Clinical drug-drug interaction study: safety (treatment-emergent adverse events); type: in vivo, healthy male subjects
Procedure: Safety assessments were undertaken from screening through to the final study assessment. Safety was assessed by the monitoring of adverse events, vital signs (supine blood pressure, supine pulse and axillary temperature), clinical laboratory tests (haematology, biochemistry and urinalysis) and 12-lead electrocardiograms (ECGs).
TEAEs were graded using the National Cancer Institute’s Common Terminology Criteria for Adverse Events (NCI CTCAE) guidelines (version 4.0).

[3] = Earlier clinical pharmacokinetic and mass balance studies of peficitinib; type: in vivo, healthy subjects; settings: single oral dose of 150 mg, fasted; calculated from 524.5 ng/mL assuming 72.83% protein bound
MATE2-K = target: T3, MATE2-K (Homo sapiens, UniProt Q86VL8); test: Inhibition of [14C]metformin uptake into MATE2-K-expressing HEK293 cells; type: cell-based
T3 construct: containing full-length human transporter cDNA; expressed in transfected cells; host or cells: HEK293 (transient transfection)
Excerpt: as §1, §2, §3, §4

[4] = set-up: method as in earlier work; settings: cited from earlier work
OCT1 = target: T4, OCT1 (Homo sapiens, UniProt O15245); test: Inhibition of [14C]metformin uptake into OCT1-expressing HEK293 cells; type: cell-based
T4 construct: containing full-length human transporter cDNA; host or cells: HEK293
T4 sequence (O15245 1-554): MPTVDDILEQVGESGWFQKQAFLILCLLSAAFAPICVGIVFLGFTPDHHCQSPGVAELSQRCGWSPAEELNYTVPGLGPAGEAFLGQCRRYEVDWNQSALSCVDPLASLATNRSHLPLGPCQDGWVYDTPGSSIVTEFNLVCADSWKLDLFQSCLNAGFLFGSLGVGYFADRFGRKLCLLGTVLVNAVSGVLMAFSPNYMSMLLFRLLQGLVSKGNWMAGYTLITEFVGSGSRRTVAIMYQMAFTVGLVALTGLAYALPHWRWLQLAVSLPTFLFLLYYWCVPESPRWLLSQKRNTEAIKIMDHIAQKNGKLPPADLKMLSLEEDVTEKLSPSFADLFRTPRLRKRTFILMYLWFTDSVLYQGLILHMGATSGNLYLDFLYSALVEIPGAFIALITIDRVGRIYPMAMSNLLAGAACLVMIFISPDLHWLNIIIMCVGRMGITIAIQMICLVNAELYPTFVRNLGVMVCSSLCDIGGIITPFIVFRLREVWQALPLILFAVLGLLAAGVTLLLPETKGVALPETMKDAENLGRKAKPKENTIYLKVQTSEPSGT
Excerpt: as §1, §2, §3, §4

[5] = cited from earlier work
[6] = single oral dose of [14C]peficitinib, six healthy male subjects

T3 sequence (Q86VL8 1-566 isoform Q86VL8-3): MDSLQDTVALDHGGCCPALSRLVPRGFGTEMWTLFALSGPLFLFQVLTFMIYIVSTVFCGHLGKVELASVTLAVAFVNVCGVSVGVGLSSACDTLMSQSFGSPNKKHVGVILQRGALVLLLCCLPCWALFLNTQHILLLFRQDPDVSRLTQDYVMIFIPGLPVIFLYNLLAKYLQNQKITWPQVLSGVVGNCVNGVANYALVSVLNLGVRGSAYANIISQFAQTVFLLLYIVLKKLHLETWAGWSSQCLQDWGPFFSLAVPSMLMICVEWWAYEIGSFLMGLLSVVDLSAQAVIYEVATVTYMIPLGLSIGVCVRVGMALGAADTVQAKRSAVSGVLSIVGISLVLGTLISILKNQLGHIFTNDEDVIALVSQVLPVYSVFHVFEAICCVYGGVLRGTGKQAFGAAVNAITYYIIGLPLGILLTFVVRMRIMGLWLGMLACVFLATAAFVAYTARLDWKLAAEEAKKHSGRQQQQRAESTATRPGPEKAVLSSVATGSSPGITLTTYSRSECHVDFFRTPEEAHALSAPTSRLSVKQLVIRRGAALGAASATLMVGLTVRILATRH

## CN(C)C(=N)N=C(N)N [Metformin]
clinical; median
  AUC(0-inf): 9050 ng·h/mL
  Cmax: 1380 ng/mL
clinical; min-max
  AUC(0-inf): 6820 to 12500 ng·h/mL
  Cmax: 973 to 2030 ng/mL
clinical; mean (SD)
  Cmax: 1380 ng/mL
[1]
  CL/F of metformin, mean (SD): 83.6 (12.5) L/h
  CL/F of metformin, median: 82.9 L/h
  CL/F of metformin, min-max: 60.2 to 110 L/h
  Plasma AUClast of metformin, mean (SD): 9050 (1410) ng∙h/mL
  Plasma AUClast of metformin, median: 8990 ng·h/mL
  Urine Aelast% of metformin, mean (SD): 38.6 (3.77) %
  Urine Aelast% of metformin, median: 37.7%
  Urine Aelast% of metformin, min-max: 33.0–49.8%
  tmax of metformin, median: 3.00 h

## NC(=O)c1cnc2[nH]ccc2c1N[C@@H]1[C@@H]2CC3C[C@H]1C[C@@](O)(C3)C2 [Peficitinib]
MATE1
  IC50: 10 µM
OCT2
  IC50: 71.4 µM
[2]; peficitinib 150 mg, metformin 750 mg, no serious TEAEs or TEAEs leading to treatment withdrawal
  Tolerability: generally well tolerated
[2]; peficitinib alone phase, 150 mg once daily, 3/24 subjects, four mild (Grade 1) TEAEs, all considered drug related
  Subjects with TEAEs: 12.5%
[2]; peficitinib alone phase, 1/24
  Increased aspartate aminotransferase, subjects: 4.2%
  Soft faeces, subjects: 4.2%
[2]; peficitinib alone phase, 2/24
  Increased alanine aminotransferase, subjects: 8.3%
[3]
  Cmax of unbound peficitinib: 440 nM
MATE2-K
  IC50: 20.8 µM
[4]
  Protein bound: 72.83%
OCT1
  IC50: 0.247 µM
[5]; single and multiple doses, healthy subjects, two Phase I trials
  Urinary excretion, share of an oral dose: 9–15%
[5]; single oral dose of 150 mg, fasted conditions
  Cmax of peficitinib: 524.5 ng/mL
[5]; single oral dose of [14C]peficitinib, six healthy male subjects, assuming stability in the gastrointestinal tract
  Share of the peficitinib dose absorbed: approximately 64%
[5]; [6]
  Mean faecal excretion as unchanged peficitinib, share of administered dose: 29.8%
  Mean recovery in faeces: 56.6%
  Mean recovery in urine: 36.8%

## CN/C(=N/CCSCc1nc[nH]c1C)NC#N [cimetidine, reference compound]
MATE1; typical inhibitor, cimetidine 10 μmol/L
  [14C]metformin uptake into MATE1-expressing cells, % of uptake in the absence of inhibitors: 11.9–14.7%
MATE2-K; typical inhibitor, cimetidine 100 μmol/L
  [14C]metformin uptake into MATE2-K-expressing cells, % of uptake in the absence of inhibitors: 8.2–15.1%
